Experimental data as given in patent US8993542B2, “Methods of treating viral infections” (priority 2008, dated 2015).

Test system: HIV-1IIIB
Assay: TCID50 determination of drug-treated HIV-1IIIB
Type: cell-based
Design: TCID50, XTT Endpoint / TCID50, RT Endpoint / TCID50, P24 Endpoint: unit not given here
[1] = 500 nM, compound removal at 120 minute
[2] = virus treated 15 minutes with 0.039 nM drug
[3] = virus treated 15 minutes with 0.125 nM drug
[4] = virus treated 15 minutes with 0.39 nM drug
[5] = virus treated 15 minutes with 1.25 nM drug
[6] = virus treated 15 minutes with 3.9 nM drug
[7] = virus treated 15 minutes with 12.5 nM drug
[8] = virus treated 15 minutes with 39.1 nM drug
[9] = virus treated 15 minutes with 125 nM drug
[10] = virus treated 2 hours with 125 nM drug
[11] = virus treated 2 hours with 250 nM drug
[12] = virus treated 2 hours with 500 nM drug
[13] = virus treated 2 hours with 1000 nM drug

For CCCCCCCCCCCCCCCCOCCCOP(=O)(O)CO[C@H](C)Cn1cnc2c(N)ncnc21 [CMX157, Hexadecyloxypropyl-9-R-[2-(Phosphonomethoxy)Propyl]-Adenine], the “Fold Decrease From VC, RT Endpoint” value [1] was “(3.2) Fold”, the “Fold Decrease From VC, XTT Endpoint” value [1] was “(4.0) Fold” and the “TCID50, P24 Endpoint” value [1] was 6398. For the same compound, the “TCID50, RT Endpoint” value [1] was 25588, the “TCID50, XTT Endpoint” value [1] was 1132 and the “concentrations resulting in reduced infectivity” value (15 minutes incubation) was no less than 3.9 nM. For the same compound, the “reduction of viral replication” value (1000, 500, 250 or 125 nM, 2 hours) was 2-4 fold, the “Fold Decrease From VC, P24 Endpoint” value [2] was “(0) Fold” and the “Fold Decrease From VC, RT Endpoint” value [2] was “(1.0) Fold”. For the same compound, the “Fold Decrease From VC, XTT Endpoint” value [2] was “(1.1) Fold”, the “TCID50, P24 Endpoint” value [2] was 36337 and the “TCID50, RT Endpoint” value [2] was 157772. For the same compound, the “TCID50, XTT Endpoint” value [2] was 16145, the “Fold Decrease From VC, P24 Endpoint” value [3] was “(0) Fold” and the “Fold Decrease From VC, RT Endpoint” value [3] was “(1.1) Fold”. The “Fold Decrease From VC, XTT Endpoint” value [3] was “(1.1) Fold”, the “TCID50, P24 Endpoint” value [3] was 30411 and the “TCID50, RT Endpoint” value [3] was 144887. The “TCID50, XTT Endpoint” value [3] was 16145, the “Fold Decrease From VC, P24 Endpoint” value [4] was “(1.4) Fold” and the “Fold Decrease From VC, RT Endpoint” value [4] was “(1.6) Fold”. The “Fold Decrease From VC, XTT Endpoint” value [4] was “(1.4) Fold”, the “TCID50, P24 Endpoint” value [4] was 21529 and the “TCID50, RT Endpoint” value [4] was 102336. The “TCID50, XTT Endpoint” value [4] was 12795, the “Fold Decrease From VC, P24 Endpoint” value [5] was “(0) Fold” and the “Fold Decrease From VC, RT Endpoint” value [5] was “(1.6) Fold”. The “Fold Decrease From VC, XTT Endpoint” value [5] was “(2.0) Fold”, the “TCID50, P24 Endpoint” value [5] was 30411 and the “TCID50, RT Endpoint” value [5] was 102336. The “TCID50, XTT Endpoint” value [5] was 9058, the “Fold Decrease From VC, P24 Endpoint” value [6] was “(2.0) Fold” and the “Fold Decrease From VC, RT Endpoint” value [6] was “(1.6) Fold”. The “Fold Decrease From VC, XTT Endpoint” value [6] was “(4.0) Fold”, the “TCID50, P24 Endpoint” value [6] was 15207 and the “TCID50, RT Endpoint” value [6] was 102336. For the same compound, the “TCID50, XTT Endpoint” value [6] was 4529, the “Fold Decrease From VC, P24 Endpoint” value [7] was “(5.6) Fold” and the “Fold Decrease From VC, RT Endpoint” value [7] was “(1.6) Fold”. The “Fold Decrease From VC, XTT Endpoint” value [7] was “(4.0) Fold”, the “TCID50, P24 Endpoint” value [7] was 5383 and the “TCID50, RT Endpoint” value [7] was 102336. For the same compound, the “TCID50, XTT Endpoint” value [7] was 4529, the “Fold Decrease From VC, P24 Endpoint” value [8] was “(4.0) Fold” and the “Fold Decrease From VC, RT Endpoint” value [8] was “(2.5) Fold”. For the same compound, the “Fold Decrease From VC, XTT Endpoint” value [8] was “(3.6) Fold”, the “TCID50, P24 Endpoint” value [8] was 7604 and the “TCID50, RT Endpoint” value [8] was 64570. The “TCID50, XTT Endpoint” value [8] was 5082, the “Fold Decrease From VC, P24 Endpoint” value [9] was “(4.0) Fold” and the “Fold Decrease From VC, RT Endpoint” value [9] was “(2.5) Fold”. For the same compound, the “Fold Decrease From VC, XTT Endpoint” value [9] was “(4.5) Fold”, the “TCID50, P24 Endpoint” value [9] was 7604 and the “TCID50, RT Endpoint” value [9] was 64570. For the same compound, the “TCID50, XTT Endpoint” value [9] was 4027, the “Fold Decrease From VC, P24 Endpoint” value [10] was “(4.0) Fold” and the “Fold Decrease From VC, RT Endpoint” value [10] was “(1.6) Fold”. The “Fold Decrease From VC, XTT Endpoint” value [10] was “(4.0) Fold”, the “TCID50, P24 Endpoint” value [10] was 9058 and the “TCID50, RT Endpoint” value [10] was 51172. For the same compound, the “TCID50, XTT Endpoint” value [10] was 1132, the “Fold Decrease From VC, P24 Endpoint” value [11] was “(3.4) Fold” and the “Fold Decrease From VC, RT Endpoint” value [11] was “(3.2) Fold”. For the same compound, the “Fold Decrease From VC, XTT Endpoint” value [11] was “(4.0) Fold”, the “TCID50, P24 Endpoint” value [11] was 10765 and the “TCID50, RT Endpoint” value [11] was 25588. For the same compound, the “TCID50, XTT Endpoint” value [11] was 1132, the “Fold Decrease From VC, P24 Endpoint” value [12] was “(4.8) Fold” and the “Fold Decrease From VC, RT Endpoint” value [12] was “(2.2) Fold”. For the same compound, the “Fold Decrease From VC, XTT Endpoint” value [12] was “(4.0) Fold”, the “TCID50, P24 Endpoint” value [12] was 7604 and the “TCID50, RT Endpoint” value [12] was 36227. The “TCID50, XTT Endpoint” value [12] was 1132, the “Fold Decrease From VC, P24 Endpoint” value [13] was “(4.8) Fold” and the “Fold Decrease From VC, RT Endpoint” value [13] was “(2.2) Fold”. The “Fold Decrease From VC, XTT Endpoint” value [13] was “(4.0) Fold”, the “TCID50, P24 Endpoint” value [13] was 7604 and the “TCID50, RT Endpoint” value [13] was 36227. For the same compound, the “TCID50, XTT Endpoint” value [13] was 1132.
